This test deals with T1, STK38L (NDR2) (Homo sapiens, UniProt Q9Y2H1).
T1 construct: purchased Thermo Fisher Scientific (Life Technologies) SelectScreen
In words: SelectScreen LanthaScreen. It counts as binding. The following applies: read-out: % displacement. Put shortly: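 NU5455 was profiled across the SelectScreen Broad panel of kinase activity and binding assays. Z'LYTE reactions such as CSF1R ran at apparent Km ATP, while the Adapta CAMK1 assay used ATP listed as 10. Values are given as percent.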

Molecules are shown by their SMILES.

T1 sequence (Q9Y2H1 whole entry): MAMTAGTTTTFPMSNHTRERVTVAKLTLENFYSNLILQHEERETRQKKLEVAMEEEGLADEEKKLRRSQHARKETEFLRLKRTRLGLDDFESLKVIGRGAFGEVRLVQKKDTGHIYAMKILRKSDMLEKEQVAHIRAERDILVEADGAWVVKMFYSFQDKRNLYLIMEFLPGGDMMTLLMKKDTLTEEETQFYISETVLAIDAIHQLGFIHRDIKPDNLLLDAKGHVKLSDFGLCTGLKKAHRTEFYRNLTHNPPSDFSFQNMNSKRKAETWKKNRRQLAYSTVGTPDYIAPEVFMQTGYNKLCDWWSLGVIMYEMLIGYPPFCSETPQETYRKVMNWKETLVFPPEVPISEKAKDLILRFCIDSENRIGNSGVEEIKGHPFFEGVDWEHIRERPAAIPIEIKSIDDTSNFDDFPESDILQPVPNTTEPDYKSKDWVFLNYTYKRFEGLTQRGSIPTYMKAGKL

With `CN(C(=O)CN1CCOCC1)c1ccc2sc3c(-c4cccc5c(=O)cc(N6CC7CCC(C6)O7)oc45)cccc3c2c1` [NU5455], the inhibition at 1 µM was -8.4%.

These data come from article PMC6934184, “Selective DNA-PKcs inhibition extends the therapeutic index of localized radiotherapy and chemotherapy” (The Journal of Clinical Investigation, 2019).
